The values that follow come from paper PMC9697349, “Mouse Pharmacokinetics and In Vitro Metabolism of SH-11037 and SH-11008, Synthetic Homoisoflavonoids for Retinal Neovascularization” (Pharmaceutics, 2022).

Data set [1] can be described thus: Metabolic stability of SH-11008 in mouse liver S9 fractions. It counts as in vitro ADME. The procedure:
(§1) For studies using NADPH or PAPS as a cofactor, 4 μL of SH-11008 (40 μM) solution in 40 vol% CH3CN were mixed with 40 μL of 4 mg protein/mL HLS9 or MLS9 fractions diluted in 0.1 M potassium phosphate buffer (pH 7.4) and 100 μL of 0.1 M potassium phosphate buffer (pH 7.4). When using UDPGA as a cofactor, 32 μL of UGT Reaction Mix Solution B and 68 μL of de-ionized water were used instead of 100 μL of 0.1 M potassium phosphate buffer (pH 7.4). The mixture was warmed at 37 °C for 5 min. The reaction was then initiated by adding 16 μL of 10 mM cofactor dissolved in de-ionized water. The assay condition for UDPGA was used for metabolic stability studies conducted with a mixture of the three cofactors. The reaction was terminated at selected times by adding 160 μL of ice-cold CH3CN containing glipizide (500 ng/mL) as the IS. The resulting mixture was vortexed, sonicated, and centrifuged at 3000× g for 20 min. Aliquots of the supernatant were subjected to LC-MS/MS analysis described below in Section 2.6.2.
(§2) The LC-MS/MS system consisted of Agilent 1290 Infinity HPLC system and Agilent 6530 Accurate-Mass Quadrupole Time-of-Flight (Q-TOF) mass spectrometer equipped with dual AJS ESI ion source (Agilent Technologies Korea, Seoul, Korea). Chromatographic separation was performed on an Agilent Eclipse Plus C18 column (2.1 × 100 mm, 3.5 μm) with a Phenomenex Security Guard C18 guard column (4 × 20 mm) maintained at 40 °C. The mobile phase consisted of 0.1% formic acid in deionized water (A) and 0.1% formic acid in CH3CN (B): 0~2 min 5% B, 2~7 min to 95% B, and 7~10 min 95% B. Total run time including a 5 min equilibration time was 15 min. The flow rate was 0.4 mL/min. The injection volume was 5 µL. The mass spectrometer was operated in a positive Auto MS/MS scan mode with a full scan mass range of m/z 100–1000, fragmentor voltage 150 V, and CE 30 eV, selecting the two most intense precursor ions for collision-induced dissociation. Putative metabolites were identified using Agilent Mass Hunter Metabolite ID software (ver.B.04.00) followed by manual interpretation of the spectral data. Chromatograms and mass spectra were extracted using Agilent Mass Hunter Qualitative Analysis software (ver. B.05.00).
(§3) Pharmacokinetic parameters were calculated by noncompartmental analysis of plasma concentration versus time profiles using PKSolver. The scaling factors of mice and human, half-life (t1/2), intrinsic clearance (CLint), hepatic clearance (CLH), and hepatic extraction ratio (EH) were from the in vitro studies as described previously. […] The fraction of parent drug converted to the metabolite (fm) was calculated as follows:fm (%) = (AUC(m) × CL(m))/D × MWparent/MWmetabolite × 100,(1) where D is dose of the parent drug, AUC(m) is area under the curve for the metabolite after a dose of parent drug, CL(m) is CL of metabolite, and MW is molecular weight.

Data set [2] can be described thus: Metabolic stability of SH-11008 in human liver S9 fractions. It counts as in vitro ADME. The procedure: as §1, §2, §3
Data set [3] concerns human microvascular retinal endothelial cell proliferation. More on the design: method as in PMID 26035340. As to conditions: less potent than SH-11037; cited from earlier work.
Data set [4] is classed as in vitro ADME. As to conditions: male, ICR, mouse, 1 min, 1 µM, pH 7.4. The procedure:
(§4) Chemical inhibition assay was conducted in mouse, dog, and human plasma and mouse eye homogenate to identify the enzyme(s) involved in the hydrolysis of SH-11037. BW284c51 [16], DTNB [17], EPZ [18], and BNPP [19, 20] were used as selective inhibitors of acetylcholinesterase (AChE), paraoxonase 1 (PON1), butyrylcholinesterase (BchE), and carboxylesterase (CES), respectively. Mouse eyes (male ICR mouse, 8 weeks old) taken immediately after CO2 asphyxiation were homogenized by an electric tissue homogenizer (Tissue Master-125, Omni International, Kennesaw, GA, USA) in an equal amount of 0.1 M potassium phosphate buffer (pH 7.4) on ice. The resulting homogenate was then centrifuged at 3000× g for 20 min. The supernatant was stored at −80 °C until the experiment. DMSO stock solutions of the inhibitors (0.4, 4 and 40 mM) were mixed with plasma diluted 3-fold with 0.1 M phosphate buffer (pH 7.4) to a final volume of 160 μL and final inhibitor concentrations of 0.01, 0.1, and 1 mM. The supernatant of mouse eye homogenate was treated similarly with only BNPP as the inhibitor and a single inhibitor concentration of 1 mM. The resulting pre-incubation solutions were then incubated for 2 h at 37 °C in a shaking water bath. SH-11037 (40 μM) in 50 vol% aqueous CH3CN was mixed with the pre-incubation solutions to a final volume of 160 μL and a final concentration of 1 μM. The resulting solutions were then incubated at 37 °C in a shaking water bath. The incubations were terminated at selected times by adding 160 µL of ice-cold CH3CN containing glipizide (500 ng/mL) as the IS. The resulting mixture was vortexed, sonicated, and centrifuged at 3000× g for 20 min. Aliquots of the supernatant were subjected to LC-MS/MS analysis described below in Section 2.6.2.
as §2

Data set [5] deals with hydrolysis of SH-11037 in dog plasma. In kind it is in vitro ADME. As to conditions: beagle, 2 h, 1 µM, pH 7.4. How it is done:
as §4, §2

The subject of data set [6] is hydrolysis of SH-11037 in mouse plasma. In kind it is in vitro ADME. To be noted: ICR, mouse, 1 min, 1 µM, pH 7.4. How it is done:
as §4, §2

Structures are written as SMILES.

With `COc1ccc(CC2COc3cc(OC)c(OC)c(OC)c3C2=O)cc1O` (centres unmarked) [SH-11008], the CLint scaled at 1 µM came to 1510 mL/min/kg in data set [1] (CD-1, liver S9 fractions, pH 7.4, mouse, scaled from in vitro t1/2 in MLS9) and 3580 mL/min/kg in data set [2] (liver S9 fractions, human, scaled from in vitro t1/2 in HLS9). The half-life at 1 µM in data set [1] (CD-1, mouse, liver S9 fractions, SH-11008 1 µM, MLS9 1 mg protein/mL, mixture of NADPH, UDPGA and PAPS (1 mM), 37 °C) was 5.7 min; in data set [2] (human, liver S9 fractions, SH-11008 1 µM, HLS9 1 mg protein/mL, mixture of NADPH, UDPGA and PAPS (1 mM), 37 °C), 0.6 min. Moreover, the “metabolic stability with cofactor added individually” value in data set [1] (MLS9, NADPH, UDPGA or PAPS 1 mM individually, 30 min) is given as “metabolized rapidly”. For the same compound, the EH in data set [1] (mouse, predicted hepatic extraction ratio from MLS9 data) is on record as 0.94; in data set [2] (human, predicted hepatic extraction ratio from HLS9 data), 0.99. For the same compound, the CLH is 84.9 mL/min/kg in data set [1] (mouse, predicted with the well-stirred model from MLS9 data) and 19.9 mL/min/kg in data set [2] (human, predicted with the well-stirred model from HLS9 data). Also, the “metabolic stability in the presence of NADPH” value in data set [2] (HLS9, NADPH 1 mM only, 30 min) is “stable”. Also, in data set [3], the “inhibitory activity on cell proliferation” value was “good inhibitory activity”.
`COc1ccc(CC2COc3cc(OC)c(OC)c(OC)c3C2=O)cc1OC(=O)[C@H](Cc1ccccc1)NC(=O)OC(C)(C)C` (some centres unmarked) [SH-11037]: in data set [4], the “SH-11037 converted to SH-11008” value is ~ 90%. Moreover, the “SH-11008 Formation (%), % of SH-11037 converted to SH-11008” value in data set [5] came to 91.7 ± 1.2%; in data set [6], 98.3 ± 2.8%.
